The values that follow come from patent US20250066344A1 (BRISTOL-MYERS SQUIBB COMPANY, priority 2021, published 2025).

The target of this assay is T1, human RXFP1 (Homo sapiens, UniProt Q9HBX9).
T1 construct: expressed in transfected cells
T1 sequence (Q9HBX9 1-757): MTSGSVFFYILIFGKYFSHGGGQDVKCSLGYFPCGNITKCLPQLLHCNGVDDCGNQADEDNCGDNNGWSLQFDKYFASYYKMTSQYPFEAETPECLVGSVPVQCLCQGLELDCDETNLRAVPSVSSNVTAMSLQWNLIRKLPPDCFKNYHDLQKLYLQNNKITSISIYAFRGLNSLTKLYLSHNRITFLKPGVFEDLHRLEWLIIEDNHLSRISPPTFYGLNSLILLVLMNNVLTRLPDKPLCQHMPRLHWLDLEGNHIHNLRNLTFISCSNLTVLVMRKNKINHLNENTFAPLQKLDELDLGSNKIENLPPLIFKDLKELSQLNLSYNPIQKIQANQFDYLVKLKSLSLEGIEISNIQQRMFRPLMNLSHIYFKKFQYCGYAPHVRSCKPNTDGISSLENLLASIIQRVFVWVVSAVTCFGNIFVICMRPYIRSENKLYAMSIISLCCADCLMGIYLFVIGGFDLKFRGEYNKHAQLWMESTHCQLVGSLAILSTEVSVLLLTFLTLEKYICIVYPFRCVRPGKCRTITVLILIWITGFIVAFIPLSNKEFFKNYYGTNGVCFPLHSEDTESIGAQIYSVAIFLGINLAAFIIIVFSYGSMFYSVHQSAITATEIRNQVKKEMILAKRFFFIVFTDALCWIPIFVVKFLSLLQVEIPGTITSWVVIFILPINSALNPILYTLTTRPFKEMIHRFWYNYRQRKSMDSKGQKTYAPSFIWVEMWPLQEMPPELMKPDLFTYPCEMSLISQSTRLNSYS
Nature of the assay: RXFP1 cyclic adenosine monophosphate (cAMP) assay, hRXFP1 HEK293. As to conditions: HEK293 cells stably expressing human RXFP1; 30 min at room temperature; HTRF cAMP. It is filed as cell-based. Here is the method: RXFP1 Cyclic Adenosine Monophosphate (cAMP) Assays. Human embryonic kidney cells 293 (HEK293) cells and HEK293 cells stably expressing human RXFP1, were cultured in MEM medium supplemented with 10% qualified FBS, and 300 μg/ml hygromycin (Life Technologies). Cells were dissociated and suspended in assay buffer. The assay buffer was HBSS buffer (with calcium and magnesium) containing 20 mM HEPES, 0.05% BSA, and 0.5 mM IBMX. Cells (3000 cells per well, except 1500 cell per well for HEK293 cells stably expressing human RXFP1) were added to 384-well Proxiplates (Perkin-Elmer). Cells were immediately treated with test compounds in DMSO (2% final) at final concentrations in the range of 0.010 nM to 50 μM. Cells were incubated for 30 min at room temperature. The level of intracellular cAMP was determined using the HTRF HiRange cAMP assay reagent kit (Cisbio) according to manufacturer's instructions. Solutions of cryptate conjugated anti-cAMP and d2 fluorophore-labelled cAMP were made in a supplied lysis buffer separately. Upon completion of the reaction, the cells were lysed with equal volume of the d2-cAMP solution and anti-cAMP solution. After a 1 h room temperature incubation, time-resolved fluorescence intensity was measured using the Envision (Perkin-Elmer) at 400 nm excitation and dual emission at 590 nm and 665 nm. A calibration curve was constructed with an external cAMP standard at concentrations ranging from 2.7 μM to 0.1 μM by plotting the fluorescent intensity ratio from 665 nm emission to the intensity from the 590 nm emission against cAMP concentrations. The potency and activity of a compound to […] cAMP production was then determined by fitting to a 4-parametric logistic equation from a plot of cAMP level versus compound concentrations.
The examples disclosed below were tested in the human RXFP1 (hRXFP) HEK293 cAMP assay described above and found to have agonist activity. Tables 1-3, lists EC50 values in the hRXFP1 HEK293 cAMP assay measured for the examples.
Table A lists EC50 values in the hRXFP1 HEK293 cAMP assay measured for the examples.
`COc1ccc(C2=NOC3(CCNC3)C2)cc1C(=O)Nc1cc2c(cc1C(=O)Nc1ccc(F)c(C(F)(F)F)c1)OC(F)(F)O2` (centres unmarked) [Example 66, 2,2-difluoro-N-(4-fluoro-3-(trifluoromethyl)phenyl)-6-(2-methoxy-5-(1-oxa-2,7-diazaspiro[4.4]non-2-en-3-yl)benzamido)benzo[d] [1,3]dioxole-5-carboxamide] registered an EC50 of 338 nM. As for `COc1ccc(C2=NOC3CS(=O)(=O)CC23)cc1C(=O)Nc1cc2c(cc1C(=O)Nc1ccc(F)c(C(F)(F)F)c1)OC(F)(F)O2` (single isomer, unassigned) [Example 61, 6-(5-(5,5-dioxido-3a,4,6,6a-tetrahydrothieno[3,4-d]isoxazol-3-yl)-2-methoxybenzamido)-2,2-difluoro-N-(4-fluoro-3-(trifluoromethyl)phenyl) benzo[d][1,3]dioxole-5-carboxamide], the figure is 17 nM; as for `COc1ccc(-c2cc(C(=O)NS(C)(=O)=O)ccc2F)cc1C(=O)Nc1cc2c(cc1C(=O)Nc1ccc(F)c(C(F)(F)F)c1)OC(F)(F)O2` [Example 47, N3-(2,2-difluoro-6-((4-fluoro-3-(trifluoromethyl)phenyl)carbamoyl)benzo[d][1,3]dioxol-5-yl)-6′-fluoro-4-methoxy-N3′-(methylsulfonyl)-[1,1′-biphenyl]-3,3′-dicarboxamide], 85 nM. Take `COc1ccc(C2CCN(C(=O)C(C)(C)O)C2)cc1C(=O)Nc1cc2c(cc1C(=O)Nc1ccc(F)c(C(F)(F)F)c1)OC(F)(F)O2` (single isomer, unassigned) [Example 55, 2,2-difluoro-N-(4-fluoro-3-(trifluoromethyl)phenyl)-6-(5-(1-(2-hydroxy-2-methylpropanoyl)pyrrolidin-3-yl)-2-methoxybenzamido) benzo[d][1,3]dioxole-5-carboxamide]: the midpoint of the response, the EC50, lay at 322 nM. As for `COc1ccc(C2=NOC3CS(=O)(=O)CC23)cc1C(=O)Nc1cc2c(cc1C(=O)Nc1ccc(F)c(C(F)(F)F)c1)OC(F)(F)O2` (centres unmarked) [Example 65, 6-(5-(5,5-dioxido-3a,4,6,6a-tetrahydrothieno[3,4-d]isoxazol-3-yl)-2-methoxybenzamido)-2,2-difluoro-N-(4-fluoro-3-(trifluoromethyl)phenyl) benzo[d][1,3]dioxole-5-carboxamide], the figure is 285 nM.

The compound `COc1ccc(C2=NOC3CC(CO)CC23)cc1C(=O)Nc1cc2c(cc1C(=O)Nc1ccc(F)c(C(F)(F)F)c1)OC(F)(F)O2` (centres unmarked) [Example 99, 2,2-difluoro-N-(4-fluoro-3-(trifluoromethyl)phenyl)-6-(5-(5-(hydroxymethyl)-3a,5,6,6a-tetrahydro-4H-cyclopenta[d]isoxazol-3-yl)-2-methoxybenzamido) benzo[d][1,3]dioxole-5-carboxamide] came in with an EC50 of 3.9 nM. As for `COc1ccc(C2=NOC3CC(O)CC23)cc1C(=O)Nc1cc2nc(C)sc2cc1C(=O)Nc1ccc(F)c(C(F)(F)F)c1` (single isomer, unassigned) [Example 8, N-(4-fluoro-3-(trifluorometh-yl)phenyl)-5-(5-(5-hydroxy-3a,5,6,6a-tetra-hydro-4H-cyclopenta[d]isoxazol-3-yl)-2-methoxy-benzamido)-2-methylbenzo [d]thiazole-6-carboxamide], the figure is 40 nM; as for `COc1ccc(C2=NOC3CNCC23)cc1C(=O)Nc1cc2c(cc1C(=O)Nc1ccc(F)c(C(F)(F)F)c1)OC(F)(F)O2` (single isomer, unassigned) [Example 43, 2,2-difluoro-N-(4-fluoro-3-(trifluoromethyl)phenyl)-6-(2-methoxy-5-(3a,5,6,6a-tetrahydro-4H-pyrrolo[3,4-d]isoxazol-3-yl)benzamido)benzo[d][1,3]dioxole-5-carboxamide], 13 nM; as for `COc1ccc(N2CC(CO)CC2=O)cc1C(=O)Nc1cc2nc(C)sc2cc1C(=O)Nc1ccc(F)c(C(F)(F)F)c1` (centres unmarked) [Example 13, N-(4-fluoro-3-(trifluorometh-yl)phenyl)-5-(5-(4-(hy-droxymethyl)-2-oxopyrroli-din-1-yl)-2-methoxybenz-amido)-2-methylbenzo [d]thiazole-6-carboxamide], 540 nM. As for `COc1ccc(C2=NOC3CC(COP(=O)(O)O)CC23)cc1C(=O)Nc1cc2nc(C)sc2cc1C(=O)Nc1ccc(F)c(C(F)(F)F)c1` (centres unmarked) [Example 9, (3-(3-((6-((4-fluoro-3-(trifluorometh-yl)phenyl)car-bamoyl)-2-methylbenzo [d]thiazol-5-yl)carbamo-yl)-4-meth-oxyphenyl)-3a,5,6,6a-tetra-hydro-4H-cyclopenta[d]isoxazol-5-yl)methyldi-hydrogen phosphate], the figure is 110 nM; as for `COc1ccc(C(=O)N2CCC3(CC2)COC3)cc1C(=O)Nc1cc2c(cc1C(=O)Nc1ccc(F)c(C(F)(F)F)c1)OC(F)(F)O2` [Example 42, 2,2-difluoro-N-(4-fluoro-3-(trifluoromethyl)phenyl)-6-(2-methoxy-5-(2-oxa-7-azaspiro[3.5]nonane-7-carbonyl)benzamido) benzo[d][1,3]dioxole-5-carboxamide], 1200 nM. As for `COc1ccc(C2=NOC3CC(NC(=O)CO)CC23)cc1C(=O)Nc1cc2c(cc1C(=O)Nc1ccc(F)c(C(F)(F)F)c1)OC(F)(F)O2` (centres unmarked) [Example 51, 2,2-difluoro-N-(4-fluoro-3-(trifluoromethyl)phenyl)-6-(5-(5-(2-hydroxyacetamido)-3a,5,6,6a-tetrahydro-4H-cyclopenta[d]isoxazol-3-yl)-2-methoxybenzamido)benzo[d][1,3]dioxole-5-carboxamide], the figure is 21 nM; as for `COc1ccc(C2CCN(C(=O)C(C)(C)O)C2)cc1C(=O)Nc1cc2c(cc1C(=O)Nc1ccc(F)c(C(F)(F)F)c1)OC(F)(F)O2` (single isomer, unassigned) [Example 46, 2,2-difluoro-N-(4-fluoro-3-(trifluoromethyl)phenyl)-6-(5-(1-(2-hydroxy-2-methylpropanoyl)pyrrolidin-3-yl)-2-methoxybenzamido)benzo[d][1,3]dioxole-5-carboxamide], 49 nM; as for `COc1ccc(C2=NOC(CO)C2)cc1C(=O)Nc1cc2c(cc1C(=O)Nc1ccc(F)c(C(F)(F)F)c1)OC(F)(F)O2` (single isomer, unassigned) [Example 72, 2,2-difluoro-N-(4-fluoro-3-(trifluoromethyl)phenyl)-6-(5-(5-(hydroxymethyl)-4,5-dihydroisoxazol-3-yl)-2-methoxybenzamido) benzo[d][1,3]dioxole-5-carboxamide], 65 nM.

`COCC1CC(c2ccc(OC)c(C(=O)Nc3cc4c(cc3C(=O)Nc3ccc(F)c(C(F)(F)F)c3)OC(F)(F)O4)c2)=NO1` (centres unmarked) [Example 83, 2,2-difluoro-N-(4-fluoro-3-(trifluoromethyl)phenyl)-6-(2-methoxy-5-(5-(methoxymethyl)-4,5-dihydroisoxazol-3-yl)benzamido)benzo[d] [1,3]dioxole-5-carboxamide] displayed a concentration for a half-maximal effect (EC50) of 399 nM. As to `COc1ccc(C2=NOC3(C2)CN(C(=O)CO)C3)cc1C(=O)Nc1cc2c(cc1C(=O)Nc1ccc(F)c(C(F)(F)F)c1)OC(F)(F)O2` [Example 75, 2,2-difluoro-N-(4-fluoro-3-(trifluoromethyl)phenyl)-6-(5-(2-(2-hydroxyacetyl)-5-oxa-2,6-diazaspiro[3.4]oct-6-en-7-yl)-2-methoxybenzamido) benzo[d][1,3]dioxole-5-carboxamide], the EC50 was determined as 231 nM. As for `COc1ccc(C2CCCN(S(C)(=O)=O)C2)cc1C(=O)Nc1cc2c(cc1C(=O)Nc1ccc(F)c(C(F)(F)F)c1)OC(F)(F)O2` (single isomer, unassigned) [Example 49, 2,2-difluoro-N-(4-fluoro-3-(trifluoromethyl)phenyl)-6-(2-methoxy-5-(1-(methylsulfonyl)piperidin-3-yl)benzamido)benzo[d][1,3]dioxole-5-carboxamide], the figure is 154 nM.

As usually defined, the EC50 is the concentration needed to bring the measured effect to its halfway point.
